Source: patent US20220289715A1, “PESTICIDALLY ACTIVE PYRAZINE-AMIDE COMPOUNDS” (priority 2019, published 2022)

What was measured:
Type in all cases: in vivo
[1] = system: Chilo suppressalis (Striped Rice Stemborer); assay: Example B3: Chilo suppressalis, artificial diet; conditions: 144 h, application rate of 200 ppm, L2 larvae, 6 days after infestation, read-out: control in at least one of the three categories (mortality, anti-feedant effect, or growth inhibition)
Procedure: Example B3: Chilo suppressalis (Striped Rice Stemborer)
24-well microtiter plates with artificial diet were treated with aqueous test solutions prepared from 10,000 ppm DMSO stock solutions by pipetting. After drying, the plates were infested with L2 larvae (6-8 per well). The samples were assessed for mortality, anti-feeding effect, and growth inhibition in comparison to untreated samples 6 days after infestation. Control of Chilo suppressalis by a test sample is given when at least one of the categories mortality, anti-feedant effect, and growth inhibition is higher than the untreated sample.

[2] = system: Plutella xylostella (Diamond Back Moth); assay: Example B4: Plutella xylostella, artificial diet, 24-well; conditions: 192 h, application rate of 200 ppm, eggs, 8 days after infestation, read-out: control in at least one of the two categories (mortality or growth inhibition)
Procedure: Example B4: Plutella xylostella (Diamond Back Moth)
24-well microtiter plates with artificial diet were treated with aqueous test solutions prepared from 10,000 ppm DMSO stock solutions by pipetting. After drying, Plutella eggs were pipetted through a plastic stencil onto a gel blotting paper and the plate was closed with it. The samples were assessed for mortality and growth inhibition in comparison to untreated samples 8 days after infestation.
(§1) The following compounds gave an effect of at least 80% control in at least one of the two categories (mortality or growth inhibition) at an application rate of 200 ppm: […]

[3] = system: Spodoptera littoralis (Egyptian Cotton Leaf Worm); assay: Example B6: Spodoptera littoralis, spray on cotton leaf discs; conditions: foliar, 72 h, application rate of 200 ppm, L1 larvae, 3 days after infestation, read-out: control in at least one of the three categories (mortality, anti-feedant effect, or growth inhibition)
Procedure: Example B6: Spodoptera littoralis (Egyptian Cotton Leaf Worm)
Cotton leaf discs were placed onto agar in 24-well microtiter plates and sprayed with aqueous test solutions prepared from 10,000 ppm DMSO stock solutions. After drying the leaf discs were infested with five L1 larvae. The samples were assessed for mortality, anti-feeding effect, and growth inhibition in comparison to untreated samples 3 days after infestation. Control of Spodoptera littoralis by a test sample is given when at least one of the categories mortality, anti-feedant effect, and growth inhibition is higher than the untreated sample.

[4] = system: Diabrotica balteata (Corn Root Worm); assay: Example B1: Diabrotica balteata, spray on maize sprouts; conditions: 96 h, application rate of 200 ppm, L2 larvae, 4 days after infestation, read-out: control in at least one of the two categories (mortality or growth inhibition)
Procedure: Example B1: Diabrotica balteata (Corn Root Worm)
Maize sprouts placed onto an agar layer in 24-well microtiter plates were treated with aqueous test solutions prepared from 10,000 ppm DMSO stock solutions by spraying. After drying, the plates were infested with L2 larvae (6 to 10 per well). The samples were assessed for mortality and growth inhibition in comparison to untreated samples 4 days after infestation.
as §1

[5] = system: Plutella xylostella (Diamondback Moth); assay: Example B9: Plutella xylostella, artificial diet, 96-well; conditions: 216 h, application rate of 500 ppm, eggs/L1 larvae, 9 days after infestation
Procedure: Example B9: Plutella xylostella (Diamondback Moth)
96-well microtiter plates containing artificial diet were treated with aqueous test solutions, prepared from 10,000 ppm DMSO stock solutions, by a liquid handling robot. After drying, eggs (˜30 per well) were infested onto a netted lid which was suspended above the diet. The eggs hatch and L1 larvae move down to the diet. The samples were assessed for mortality 9 days after infestation.
The following compounds gave an effect of at least 80% mortality at an application rate of 500 ppm: […]

[6] = system: Myzus persicae (Green Peach Aphid); assay: Example B10: Myzus persicae, sucrose solution, 96-well; conditions: 120 h, application rate of 50 ppm, 5 days after infestation
Description: Example B10: Myzus persicae (Green Peach Aphid)
Test compounds prepared from 10,000 ppm DMSO stock solutions were applied by a liquid handling robot into 96-well microtiter plates and mixed with a sucrose solution. Parafilm was stretched over the 96-well microtiter plate and a plastic stencil with 96 holes was placed onto the plate. Aphids were sieved into the wells directly onto the Parafilm. The infested plates were closed with a gel blotting card and a second plastic stencil and then turned upside down. The samples were assessed for mortality 5 days after infestation.

[7] = system: Euschistus heros (Neotropical Brown Stink Bug); assay: Example B2: Euschistus heros, spray on soybean leaves; conditions: 120 h, application rate of 200 ppm, N2 nymphs, 5 days after infestation, read-out: control in at least one of the two categories (mortality or growth inhibition)
Procedure: Example B2: Euschistus heros (Neotropical Brown Stink Bug)
Soybean leaves on agar in 24-well microtiter plates were sprayed with aqueous test solutions prepared from 10,000 ppm DMSO stock solutions. After drying the leaves were infested with N2 nymphs. The samples were assessed for mortality and growth inhibition in comparison to untreated samples 5 days after infestation.
as §1

CC(NC(=O)c1cc(C2CC2(F)F)cc(C(F)(F)F)c1)c1nccnc1-n1nccn1 (stereo not drawn) [Compound P7, 3-(2,2-difluorocyclopropyl)-N-[1-[3-(triazol-2-yl)pyrazin-2-yl]ethyl]-5-(trifluoromethyl)benzamide]
≥ 80%: percent control (mortality, anti-feedant effect or growth inhibition) at 200 ppm [1] | percent control (mortality or growth inhibition) at 200 ppm [2] | percent control (mortality, anti-feedant effect or growth inhibition) at 200 ppm [3] | percent control (mortality or growth inhibition) at 200 ppm [4] | mortality at 500 ppm [5]

CC(NC(=O)c1cc(Cl)cc(OC(F)(F)F)c1)c1nccnc1-n1nccn1 (stereo not drawn) [Compound P33, 3-chloro-N-[1-[3-(triazol-2-yl)pyrazin-2-yl]ethyl]-5-(trifluoromethoxy)benzamide]
≥ 80%: percent control (mortality, anti-feedant effect or growth inhibition) at 200 ppm [1] | percent control (mortality or growth inhibition) at 200 ppm [2] | percent control (mortality, anti-feedant effect or growth inhibition) at 200 ppm [3] | percent control (mortality or growth inhibition) at 200 ppm [4] | mortality at 500 ppm [5]

CC(NC(=O)c1cc(F)cc(C(F)(F)F)c1)c1nccnc1-n1nccn1 (stereo not drawn) [Compound P26, 3-fluoro-N-[1-[3-(triazol-2-yl)pyrazin-2-yl]ethyl]-5-(trifluoromethyl)benzamide]
≥ 80%: mortality at 50 ppm [6] | percent control (mortality, anti-feedant effect or growth inhibition) at 200 ppm [1] | percent control (mortality or growth inhibition) at 200 ppm [2] | percent control (mortality, anti-feedant effect or growth inhibition) at 200 ppm [3] | percent control (mortality or growth inhibition) at 200 ppm [4] | mortality at 500 ppm [5]

CC(NC(=O)c1cc(C(F)(F)F)cc(C(F)(F)F)c1)c1nccnc1-n1cncn1 (stereo not drawn) [Compound P46, N-[1-[3-(1,2,4-triazol-1-yl)pyrazin-2-yl]ethyl]-3,5-bis(trifluoromethyl)benzamide]
≥ 80%: percent control (mortality, anti-feedant effect or growth inhibition) at 200 ppm [1] | percent control (mortality or growth inhibition) at 200 ppm [7] | percent control (mortality or growth inhibition) at 200 ppm [2] | percent control (mortality, anti-feedant effect or growth inhibition) at 200 ppm [3]

CC(NC(=O)c1cc(C(F)(F)F)cc(S(=O)(=O)C(F)(F)F)c1)c1nccnc1-n1nccn1 (stereo not drawn) [Compound P13, N-[1-[3-(triazol-2-yl)pyrazin-2-yl]ethyl]-3-(trifluoromethyl)-5-(trifluoromethylsulfonyl)benzamide]
≥ 80%: percent control (mortality, anti-feedant effect or growth inhibition) at 200 ppm [1] | percent control (mortality or growth inhibition) at 200 ppm [2] | percent control (mortality, anti-feedant effect or growth inhibition) at 200 ppm [3] | percent control (mortality or growth inhibition) at 200 ppm [4] | mortality at 500 ppm [5]

CC(NC(=O)c1cc(Br)cc(Br)c1)c1nccnc1-n1nccn1 (stereo not drawn) [Compound P38, 3,5-dibromo-N-[1-[3-(triazol-2-yl)pyrazin-2-yl]ethyl]benzamide]
≥ 80%: percent control (mortality, anti-feedant effect or growth inhibition) at 200 ppm [1] | percent control (mortality or growth inhibition) at 200 ppm [2] | percent control (mortality, anti-feedant effect or growth inhibition) at 200 ppm [3] | percent control (mortality or growth inhibition) at 200 ppm [4] | mortality at 500 ppm [5]

CC(NC(=O)c1cc(C2CC2)nc(C(F)(F)F)c1)c1nccnc1-n1nccn1 (stereo not drawn) [Compound P11, 2-cyclopropyl-N-[1-[3-(triazol-2-yl)pyrazin-2-yl]ethyl]-6-(trifluoromethyl)pyridine-4-carboxamide]
≥ 80%: percent control (mortality, anti-feedant effect or growth inhibition) at 200 ppm [1] | percent control (mortality or growth inhibition) at 200 ppm [2] | percent control (mortality, anti-feedant effect or growth inhibition) at 200 ppm [3] | percent control (mortality or growth inhibition) at 200 ppm [4] | mortality at 500 ppm [5]

CC(NC(=O)c1cc(C2CC2C(F)(F)F)cc(C(F)(F)F)c1)c1nccnc1-n1nccn1 (stereo not drawn) [Compound P9, N-[1-[3-(triazol-2-yl)pyrazin-2-yl]ethyl]-3-(trifluoromethyl)-5-[2-(trifluoromethyl)cyclopropyl]benzamide]
≥ 80%: percent control (mortality, anti-feedant effect or growth inhibition) at 200 ppm [1] | percent control (mortality or growth inhibition) at 200 ppm [2] | percent control (mortality, anti-feedant effect or growth inhibition) at 200 ppm [3] | percent control (mortality or growth inhibition) at 200 ppm [4] | mortality at 500 ppm [5]

CC(NC(=O)c1cc(C(F)(F)F)cc(C(F)(F)F)c1)c1nccnc1-n1nc2ccccc2n1 (stereo not drawn) [Compound P52, N-[1-[3-(benzotriazol-2-yl)pyrazin-2-yl]ethyl]-3,5-bis(trifluoromethyl)benzamide]
≥ 80%: percent control (mortality, anti-feedant effect or growth inhibition) at 200 ppm [1] | percent control (mortality or growth inhibition) at 200 ppm [2] | percent control (mortality, anti-feedant effect or growth inhibition) at 200 ppm [3] | percent control (mortality or growth inhibition) at 200 ppm [4] | mortality at 500 ppm [5]

CC(NC(=O)c1cc(C2CC2)cc(C(F)(F)F)c1)c1nccnc1-n1nccn1 (stereo not drawn) [Compound P15, 3-cyclopropyl-N-[1-[3-(triazol-2-yl)pyrazin-2-yl]ethyl]-5-(trifluoromethyl)benzamide]
≥ 80%: percent control (mortality, anti-feedant effect or growth inhibition) at 200 ppm [1] | percent control (mortality or growth inhibition) at 200 ppm [2] | percent control (mortality, anti-feedant effect or growth inhibition) at 200 ppm [3] | percent control (mortality or growth inhibition) at 200 ppm [4] | mortality at 500 ppm [5]

CC(NC(=O)c1cc(Br)cc(OC(F)(F)F)c1)c1nccnc1-n1nccn1 (stereo not drawn) [Compound P36, 3-bromo-N-[1-[3-(triazol-2-yl)pyrazin-2-yl]ethyl]-5-(trifluoromethoxy)benzamide]
≥ 80%: percent control (mortality, anti-feedant effect or growth inhibition) at 200 ppm [1] | percent control (mortality or growth inhibition) at 200 ppm [2] | percent control (mortality, anti-feedant effect or growth inhibition) at 200 ppm [3] | percent control (mortality or growth inhibition) at 200 ppm [4] | mortality at 500 ppm [5]

CC(NC(=O)c1cc(C(F)(F)F)cc(C(F)(F)C2CC2)c1)c1nccnc1-n1nccn1 (stereo not drawn) [Compound P17, 3-[cyclopropyl(difluoro)methyl]-N-[1-[3-(triazol-2-yl)pyrazin-2-yl]ethyl]-5-(trifluoromethyl)benzamide]
≥ 80%: percent control (mortality, anti-feedant effect or growth inhibition) at 200 ppm [1] | percent control (mortality or growth inhibition) at 200 ppm [2] | percent control (mortality, anti-feedant effect or growth inhibition) at 200 ppm [3] | percent control (mortality or growth inhibition) at 200 ppm [4] | mortality at 500 ppm [5]

CC(NC(=O)c1cc(Cl)nc(C(F)(F)F)c1)c1nccnc1-n1nccn1 (stereo not drawn) [Compound P22, 2-chloro-N-[1-[3-(triazol-2-yl)pyrazin-2-yl]ethyl]-6-(trifluoromethyl)pyridine-4-carboxamide]
≥ 80%: mortality at 50 ppm [6] | percent control (mortality, anti-feedant effect or growth inhibition) at 200 ppm [1] | percent control (mortality or growth inhibition) at 200 ppm [2] | percent control (mortality, anti-feedant effect or growth inhibition) at 200 ppm [3] | percent control (mortality or growth inhibition) at 200 ppm [4] | mortality at 500 ppm [5]
